From patent US20110257236A1, “SOLID SOLUTION OF VALINE, ISOLEUCINE, LEUCINE AND ITS MANUFACTURING METHOD” (AJINOMOTO CO., INC., priority 2008, published 2011)

Columns and labels:
[1] = Dissolution speed: time until 1 g of powder dissolves completely in 100 ml warm water at 50° C., stirring 550 rpm; format: physicochemical
Experimental: (§1) As to the dissolution speed, 1 g of powder was dropped into 100 ml of warm water at 50° C. with stirring at a number of revolutions of 550 rpm (using a 200 ml beaker and a magnetic stirrer), and the time until dissolving completely was measured. The time was employed as an indicator of the dissolution speed.
as §1, with “C. or water at ordinary temperature” for “C.”, “A mean value of twice measurement” for “The time”

[2] = Mean particle size D50 by digital image analysis type particle size distribution meter; format: physicochemical
Source text: The size of the solid solution of the invention is preferably 50-1000 μm as a mean particle size. The mean particle size as used herein refers to the number median particle size of sieve diameter D50. In view of dissolution speed taking melting ability in the mouth of solid foods and usability as solid beverages into consideration, too large crystals are unsuitable for practical use. Too small crystals are also unsuitable, due to being choked by dusting upon eating and dusting loss upon manufacturing. As to the mean particle size, D50 was measured by a digital image analysis type particle size distribution meter (Ana Tec As Norway). […]

[3] = at 20° C.; water; cited from earlier work
[4] = Dissolution speed: time until 1 g of powder dissolves completely in 100 ml water at ordinary temperature, stirring 550 rpm; format: physicochemical; conditions: Table 4, 25 degrees (ordinary temperature), 1 g in 100 ml water, mean of twice measurement
Experimental: as §1, with “C. or water at ordinary temperature” for “C.”, “A mean value of twice measurement” for “The time”

[5] = Table 1, 1 g in 100 ml warm water at 50° C., time until dissolving completely
[6] = Table 5, 50 degrees, 1 g in 100 ml warm water, mean of twice measurement

| Dissolution Speed [1, 5] | Dissolution Speed [1, 6] | Mean Particle Size ([2]; Table 1) | Mean Particle Size ([2]; Table 4) | Mean Particle Size ([2]; Table 5) | Dissolution Speed [4] | SMILES | solubility [3] |
| --- | --- | --- | --- | --- | --- | --- | --- |
| 129 s | 128.5 s | 400 μm | 400 μm | 400 μm | 287 s | CC[C@H](C)[C@H](N)C(=O)O [Ile, L-isoleucine] | 4.02 g |
| 130 s | 130 s | 280 μm | 280 μm | 280 μm | 320 s | CC(C)C[C@H](N)C(=O)O [Leu, L-leucine] | 2.38 g |
| 118 s | 117.5 s | 210 μm | 210 μm | 210 μm | 142 s | CC(C)[C@H](N)C(=O)O [Val, L-valine] | 5.75 g |
